pIC50, pKd: −log10 of the molar value.
What was measured:
[1] = target: T1, 1-phosphatidylinositol 3-phosphate 5-kinase (Homo sapiens, UniProt Q9Y2I7); assay: Binding affinity to PIKfyve (unknown origin) assessed as dissociation constant by KINOMEscan profiling method
[2] = target: T1, 1-phosphatidylinositol 3-phosphate 5-kinase
MDA-MB-231 = assay: cells; settings: Homo sapiens, MDA-MB-231, 24 h
Description: Antiproliferative activity against human MDA-MB-231 cells assessed as inhibition of cell viability incubated for 24 hrs by CCK8 assay

HeLa = assay: cells; settings: Homo sapiens, 24 h
Description: Antiproliferative activity against human HeLa cells assessed as inhibition of cell viability incubated for 24 hrs by CCK8 assay

T1 sequence (Q9Y2I7 whole entry): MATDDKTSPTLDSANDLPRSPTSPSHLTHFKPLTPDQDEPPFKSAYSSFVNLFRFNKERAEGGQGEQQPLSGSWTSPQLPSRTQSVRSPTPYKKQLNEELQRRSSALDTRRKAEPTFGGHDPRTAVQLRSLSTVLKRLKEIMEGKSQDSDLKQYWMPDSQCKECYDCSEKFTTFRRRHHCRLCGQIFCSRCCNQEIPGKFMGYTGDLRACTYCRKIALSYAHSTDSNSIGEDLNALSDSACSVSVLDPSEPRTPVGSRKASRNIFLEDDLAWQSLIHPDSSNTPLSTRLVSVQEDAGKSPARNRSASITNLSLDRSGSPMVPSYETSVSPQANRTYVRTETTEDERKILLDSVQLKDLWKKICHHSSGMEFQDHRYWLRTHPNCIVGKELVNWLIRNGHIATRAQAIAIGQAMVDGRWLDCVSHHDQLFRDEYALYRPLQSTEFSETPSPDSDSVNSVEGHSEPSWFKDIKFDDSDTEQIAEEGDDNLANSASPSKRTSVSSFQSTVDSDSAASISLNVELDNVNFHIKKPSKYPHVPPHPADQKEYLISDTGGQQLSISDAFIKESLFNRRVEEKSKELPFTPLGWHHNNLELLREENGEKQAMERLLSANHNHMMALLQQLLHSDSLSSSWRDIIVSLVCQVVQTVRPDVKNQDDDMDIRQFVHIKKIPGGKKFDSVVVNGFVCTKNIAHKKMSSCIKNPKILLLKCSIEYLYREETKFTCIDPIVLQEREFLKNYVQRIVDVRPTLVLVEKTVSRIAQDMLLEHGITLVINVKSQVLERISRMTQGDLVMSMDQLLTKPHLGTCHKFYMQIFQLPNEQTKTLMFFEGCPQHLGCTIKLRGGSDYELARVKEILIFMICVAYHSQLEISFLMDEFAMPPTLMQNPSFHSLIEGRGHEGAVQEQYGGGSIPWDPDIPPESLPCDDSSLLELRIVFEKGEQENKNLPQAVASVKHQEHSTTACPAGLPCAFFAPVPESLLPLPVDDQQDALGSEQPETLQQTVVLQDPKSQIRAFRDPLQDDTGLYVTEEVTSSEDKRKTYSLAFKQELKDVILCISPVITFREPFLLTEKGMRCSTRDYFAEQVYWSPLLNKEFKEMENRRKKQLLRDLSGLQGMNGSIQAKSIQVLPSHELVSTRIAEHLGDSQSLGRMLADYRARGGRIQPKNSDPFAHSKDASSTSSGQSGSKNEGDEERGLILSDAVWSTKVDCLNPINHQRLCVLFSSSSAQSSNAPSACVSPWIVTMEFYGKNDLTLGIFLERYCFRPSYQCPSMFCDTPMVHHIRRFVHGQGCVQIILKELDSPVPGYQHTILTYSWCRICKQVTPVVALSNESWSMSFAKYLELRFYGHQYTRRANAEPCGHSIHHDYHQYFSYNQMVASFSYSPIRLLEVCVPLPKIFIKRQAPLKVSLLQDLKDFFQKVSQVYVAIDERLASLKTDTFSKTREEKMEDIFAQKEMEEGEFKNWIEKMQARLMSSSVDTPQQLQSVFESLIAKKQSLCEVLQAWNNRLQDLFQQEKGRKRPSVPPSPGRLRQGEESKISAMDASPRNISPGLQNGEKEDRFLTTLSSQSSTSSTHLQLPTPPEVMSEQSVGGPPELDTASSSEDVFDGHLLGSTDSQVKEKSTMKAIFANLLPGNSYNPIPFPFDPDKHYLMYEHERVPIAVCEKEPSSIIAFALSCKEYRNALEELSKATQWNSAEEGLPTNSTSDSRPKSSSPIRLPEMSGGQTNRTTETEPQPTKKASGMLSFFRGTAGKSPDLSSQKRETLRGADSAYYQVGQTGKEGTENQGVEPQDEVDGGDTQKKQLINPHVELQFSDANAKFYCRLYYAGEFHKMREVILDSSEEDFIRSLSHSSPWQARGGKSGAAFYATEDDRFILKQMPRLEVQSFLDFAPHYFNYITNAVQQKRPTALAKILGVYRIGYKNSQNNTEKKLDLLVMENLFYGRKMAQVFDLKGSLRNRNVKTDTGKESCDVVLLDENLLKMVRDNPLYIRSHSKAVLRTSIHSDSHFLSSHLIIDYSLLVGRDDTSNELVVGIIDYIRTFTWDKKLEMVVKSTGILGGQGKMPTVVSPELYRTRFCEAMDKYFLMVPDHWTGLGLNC

pKd [1] | pKd [2] | pIC50 (MDA-MB-231) | pIC50 (HeLa) | Compound
8.28 | 8.43 | – | – | COc1ccc2[nH]c(C)c(/C=C/C(=O)c3ccncc3)c2c1
– | 8.78 | 6.46 | 6.37 | Nc1ncnc2c1c(-c1cc3ccccc3o1)cn2[C@H]1CC[C@@H](N)CC1
– | – | < 5.30 | < 5.30 | Nc1ncnc2c1c(-c1coc3ccccc13)cn2[C@H]1CC[C@@H](N)CC1
– | – | 7.00 | 6.85 | Cc1cccc(/C=N/Nc2cc(N3CCOCC3)nc(OCCc3ccccn3)n2)c1 [APILIMOD]

From ChEMBL document CHEMBL5532663, “Discovery of Potent and Selective Phosphatidylinositol 3-Phosphate 5-Kinase (PIKfyve) Inhibitors as Methuosis Inducers” (J Med Chem, 2024)
